Experiments:
BIR2 domain of XIAP = biological target: T1, BIR2 domain of XIAP (Homo sapiens, UniProt P98170, C202A/C213G); assay: TR-FRET assay for BIR2 (inhibition of binding of XIAP BIR2 domain to SMAC-derived Peptide A); conditions: 6x Histidine-tagged BIR2 domain (amino acids 124-240 of XIAP) 10 nM, Peptide A 20 nM
T1 construct: 6× Histidine-tagged BIR2 domain, corresponding to amino acids 124-240 of XIAP
Protocol: (§1) TR-FRET Assay for BIR2 and BIR3
(§2) The ability of a test compound to inhibit the binding of BIR2 and/or BIR3 domains of the XIAP protein to Peptide A (a SMAC-derived peptide described below) evidences that the test compound acts as a SMAC-mimetic resulting in reactivation of a cell's apoptotic pathway.
(§3) The peptides were labeled with the fluorescent tags FITC or TAMRA and Kd values were determined by fluorescence polarization assay. […] The peptide sequence was derivatized with biotin to provide […]-(ε-biotin)-OH 1:2 TFA as the substrate for the TR-FRET assay.
The XIAP protein sequence was obtained from the SWISS-PROT protein sequence database and the BIR2 and BIR3 domains were derived from that. The sequence of the BIR2 domain used for the TR-FRET assay is […].
Time-resolved fluorescence resonance energy transfer (TR-FRET) signals were measured 1 hour later at room temperature. Test compound potency was assessed at 10 serially diluted concentrations. Percentage of inhibition at each concentration was determined to generate an IC50 value for each test compound.

BIR3 domain of XIAP = biological target: T2, BIR3 domain of XIAP (Homo sapiens, UniProt P98170); assay: TR-FRET assay for BIR3 (inhibition of binding of XIAP BIR3 domain to SMAC-derived Peptide A); conditions: 6x Histidine-tagged BIR3 domain (amino acids 241-356 of XIAP) 10 nM, Peptide A 20 nM
T2 construct: BIR3 domain, corresponding to amino acids 241-356 of XIAP
Protocol: as §1, §2, §3
The sequence of the BIR3 domain used for the TR-FRET assay is […]
Ten nanomolar of 6× Histidine-tagged BIR2 domain, corresponding to amino acids 124-240 of XIAP, or BIR3 domain, corresponding to amino acids 241-356 of XIAP, was mixed with 20 nM of the peptide […]-(z-biotin)-OH 1:2 TFA, in the presence of 50 mM Tris-Cl, pH 7.5, 100 mM NaCl, 1 mM dithiothreitol (DTT) and 0.1 mg/mL bovine serum albumin (BSA). Following a […] incubation at 37° C., Europium-Streptavidin and Allophycocyanin conjugated anti-Histidine antibody were added to a final concentration of 1.5 nM and 15 nM, respectively. Time-resolved fluorescence resonance energy transfer (TR-FRET) signals were measured 1 hour later at room temperature. Test compound potency was assessed at 10 serially diluted concentrations. Percentage of inhibition at each concentration was determined to generate an IC50 value for each test compound.

T1 sequence (P98170 with tags, fused parts or gaps C202A/C213G): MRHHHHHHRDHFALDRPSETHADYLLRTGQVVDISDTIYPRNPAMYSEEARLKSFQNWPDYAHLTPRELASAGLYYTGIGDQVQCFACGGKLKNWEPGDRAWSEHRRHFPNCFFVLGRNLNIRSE
T2 sequence (P98170 with tags, fused parts or gaps): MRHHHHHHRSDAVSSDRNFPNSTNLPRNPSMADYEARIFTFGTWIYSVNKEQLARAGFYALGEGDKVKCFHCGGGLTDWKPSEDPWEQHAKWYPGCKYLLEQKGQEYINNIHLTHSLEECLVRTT

IC50 (BIR2 domain of XIAP) [µM]	IC50 (BIR3 domain of XIAP) [µM]	Compound
1.04	> 54.8	CCNC(=O)C1Cc2cccnc2N1C(=O)[C@@H](NC(=O)[C@H](C)NC)C(C)C (mixture of isomers) [Example 1, (R,S)-1-[(S)-3-Methyl-2-((S)-2-methylamino-propionylamino)-butyryl]-2,3-dihydro-1H-pyrrolo[2,3-b]pyridine-2-carboxylic acid ethylamide]
3.88	> 54.8	CN[C@@H](C)C(=O)N[C@H](C(=O)N1CC(C)(C)c2cccnc21)C(C)C [Example 2, (S)—N—[(S)-1-(3,3-Dimethyl-2,3-dihydro-pyrrolo[2,3-b]pyridine-1-carbonyl)-2-methyl-propyl]-2-methylamino-propionamide]
4.03	> 54.8	CC[C@H](NC)C(=O)N[C@H](C(=O)N1CC(C)(C)c2cccnc21)C(C)C [Example 3, (S)—N—[(S)-1-(3,3-Dimethyl-2,3-dihydro-pyrrolo[2,3-b]pyridine-1-carbonyl)-2-methyl-propyl]-2-methylamino-butyramide]
2.12	> 54.8	CCNC(=O)C1Cc2cccnc2N1C(=O)[C@@H](NC(=O)[C@H](C)NC)C1CCCCC1 (stereo partly drawn) [Example 4, (R,S)-1-[(S)-2-Cyclohexyl-2-((S)-2-methylamino-propionylamino)-acetyl]-2,3-dihydro-1H-pyrrolo[2,3-b]pyridine-2-carboxylic acid ethylamide]
1.86	> 54.8	CCNC(=O)C1Cc2cccnc2N1C(=O)[C@@H](NC(=O)[C@H](CC)NC)C1CCCCC1 (stereo partly drawn) [Example 5, (R,S)-1-[(S)-2-Cyclohexyl-2-((S)-2-methylamino-butyrylamino)-acetyl]-2,3-dihydro-1H-pyrrolo[2,3-b]pyridine-2-carboxylic acid ethylamide]
1.28	> 54.8	CCNC(=O)C1Cc2cccnc2N1C(=O)[C@@H](NC(=O)[C@H](C)NC)[C@@H](C)CC (stereo partly drawn) [Example 6, (R,S)-1-[(2S,3S)-3-Methyl-2-((S)-2-methylamino-propionylamino)-pentanoyl]-2,3-dihydro-1H-pyrrolo[2,3-b]pyridine-2-carboxylic acid ethylamide]
1.03	> 54.8	CCNC(=O)C1Cc2cccnc2N1C(=O)[C@@H](NC(=O)[C@H](CC)NC)[C@@H](C)CC (stereo partly drawn) [Example 7, (R,S)-1-[(2S,3S)-3-Methyl-2-((S)-2-methylamino-butyrylamino)-pentanoyl]-2,3-dihydro-1H-pyrrolo[2,3-b]pyridine-2-carboxylic acid ethylamide]
0.501	> 54.8	CN[C@@H](C)C(=O)N[C@H](C(=O)N1c2ncccc2CC1C(N)=O)C(C)C (stereo partly drawn) [Example 8, (R,S)-1-[(S)-3-Methyl-2-((S)-2-methylamino-propionylamino)-butyryl]-2,3-dihydro-1H-pyrrolo[2,3-b]pyridine-2-carboxylic acid amide]
12.7	> 54.8	CN[C@@H](C)C(=O)N[C@H](C(=O)N1c2ncccc2C[C@@H]1C(=O)Nc1ccccc1OC)C(C)C [Example 9, (R)-1-[(S)-3-Methyl-2-((S)-2-methylamino-propionylamino)-butyryl]-2,3-dihydro-1H-pyrrolo[2,3-b]pyridine-2-carboxylic acid (2-methoxy-phenyl)-amide]
0.0841	25.9	CN[C@@H](C)C(=O)N[C@H](C(=O)N1c2ncccc2C[C@H]1C(=O)Nc1ccccc1OC)C(C)C [Example 10, (S)-1-[(S)-3-Methyl-2-((S)-2-methylamino-propionylamino)-butyryl]-2,3-dihydro-1H-pyrrolo[2,3-b]pyridine-2-carboxylic acid (2-methoxy-phenyl)-amide]
0.0635	> 54.8	CN[C@@H](C)C(=O)N[C@H](C(=O)N1c2ncccc2C[C@H]1C(=O)Nc1ccccc1)C(C)C [Example 11, (S)-1-[(S)-3-Methyl-2-((S)-2-methylamino-propionylamino)-butyryl]-2,3-dihydro-1H-pyrrolo[2,3-b]pyridine-2-carboxylic acid phenylamide]
> 54.8	> 54.8	CN[C@@H](C)C(=O)N[C@H](C(=O)N1c2ncccc2C[C@@H]1C(=O)Nc1ccccc1)C(C)C [Example 12, (R)-1-[(S)-3-Methyl-2-((S)-2-methylamino-propionylamino)-butyryl]-2,3-dihydro-1H-pyrrolo[2,3-b]pyridine-2-carboxylic acid phenylamide]
> 54.8	> 54.8	CN[C@@H](C)C(=O)N[C@H](C(=O)N1c2ncccc2C[C@@H]1C(=O)Nc1ccccc1C)C(C)C [Example 13, (R)-1-[(S)-3-Methyl-2-((S)-2-methylamino-propionylamino)-butyryl]-2,3-dihydro-1H-pyrrolo[2,3-b]pyridine-2-carboxylic acid o-tolylamide]
0.0335	> 54.8	CN[C@@H](C)C(=O)N[C@H](C(=O)N1c2ncccc2C[C@H]1C(=O)Nc1ccccc1C)C(C)C [Example 14, (S)-1-[(S)-3-Methyl-2-((S)-2-methylamino-propionylamino)-butyryl]-2,3-dihydro-1H-pyrrolo[2,3-b]pyridine-2-carboxylic acid o-tolylamide]
1.8	45.9	CN[C@@H](C)C(=O)N[C@H](C(=O)N1c2ncccc2C[C@@H]1C(=O)NCc1ccccc1)C(C)C [Example 15, (R)-1-[(S)-3-Methyl-2-((S)-2-methylamino-propionylamino)-butyryl]-2,3-dihydro-1H-pyrrolo[2,3-b]pyridine-2-carboxylic acid benzylamide]
0.159	3.95	CN[C@@H](C)C(=O)N[C@H](C(=O)N1c2ncccc2C[C@H]1C(=O)NCc1ccccc1)C(C)C [Example 16, (S)-1-[(S)-3-Methyl-2-((S)-2-methylamino-propionylamino)-butyryl]-2,3-dihydro-1H-pyrrolo[2,3-b]pyridine-2-carboxylic acid benzylamide]
0.392	24.3	CN[C@@H](C)C(=O)N[C@H](C(=O)N1c2ncccc2C[C@H]1C(=O)NCc1cc(Cl)ccc1C)C(C)C [Example 17, (S)-1-[(S)-3-Methyl-2-((S)-2-methylamino-propionylamino)-butyryl]-2,3-dihydro-1H-pyrrolo[2,3-b]pyridine-2-carboxylic acid 5-chloro-2-methyl-benzylamide]
0.108	37.6	CN[C@@H](C)C(=O)N[C@H](C(=O)N1c2ncccc2C[C@H]1C(=O)Nc1ccccc1-c1ccccc1)C(C)C [Example 18, (S)-1-[(S)-3-Methyl-2-((S)-2-methylamino-propionylamino)-butyryl]-2,3-dihydro-1H-pyrrolo[2,3-b]pyridine-2-carboxylic acid biphenyl-2-ylamide]
0.0545	35.1	CN[C@@H](C)C(=O)N[C@H](C(=O)N1c2ncccc2C[C@H]1C(=O)Nc1cccc2ccccc12)C(C)C [Example 19, (S)-1-[(S)-3-Methyl-2-((S)-2-methylamino-propionylamino)-butyryl]-2,3-dihydro-1H-pyrrolo[2,3-b]pyridine-2-carboxylic acid naphthalen-1-ylamide]
